Data taken from patent US8148367B2 (Takeda Pharmaceutical Company Limited, priority 2008, dated 2012).

Target: T1, Recombinant human renin (Homo sapiens, UniProt P00797)
T1 construct: isolate the active form (residues 67-406); made in house; host or cells: FreeStyle 293-F cells, transient expression of pcDNA3.1(+)/hREN
T1 sequence (P00797 67-406): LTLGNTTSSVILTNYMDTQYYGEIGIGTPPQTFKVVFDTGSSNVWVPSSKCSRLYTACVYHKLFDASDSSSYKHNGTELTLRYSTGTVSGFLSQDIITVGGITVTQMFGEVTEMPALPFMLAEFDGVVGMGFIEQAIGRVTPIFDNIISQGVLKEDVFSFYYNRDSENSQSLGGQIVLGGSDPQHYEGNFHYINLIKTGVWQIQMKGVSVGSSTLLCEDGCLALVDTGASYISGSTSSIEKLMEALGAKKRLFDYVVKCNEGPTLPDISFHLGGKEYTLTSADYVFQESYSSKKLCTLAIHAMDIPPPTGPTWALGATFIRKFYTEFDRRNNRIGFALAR
Test: In vitro enzymatic activity assay of renin inhibitors (fluorescence, QXL520/HiLyteFluo488 peptide substrate)
Assay type: biochemical
Settings: recombinant human renin 3 nM, 1 μM substrate, pre-incubated 10 minutes at 37° C., incubation one hour, pH 7.4, 5% DMSO; read-out: IC50 of Exemplified Compounds Against Renin

IC50 [µM]	SMILES
0.5 to 1	Cc1ccccc1-n1c(-c2ccccc2)c(C(=O)N2CCNCC2)n(CCNC(=O)Nc2ccccc2Cl)c1=O [Example 212, 1-(2-Chlorophenyl)-3-(2-(2-oxo-4-phenyl-5-(piperazine-1-carbonyl)-3-o-tolyl-2,3-dihydro-1H-imidazol-1-yl)ethyl)urea]
0.1 to 0.5	O=C(c1c(-c2ccccc2)n(-c2ccccc2)c(=O)n1Cc1ccc(Cl)c(OC(F)(F)F)c1)N1CCNCC1 [Example 87, 1-(4-Chloro-3-(trifluoromethoxy)benzyl)-3,4-diphenyl-5-(piperazine-1-carbonyl)-1H-imidazol-2(3H)-one]
> 1	O=C(c1[nH]c(=O)n(-c2ccccc2)c1CC1CC1)N1CCNCC1 [Example 25, 5-(Cyclopropylmethyl)-1-phenyl-4-(piperazine-1-carbonyl)-1H-imidazol-2(3H)-one]
0.5 to 1	Cc1ccccc1-n1c(-c2ccccc2)c(C(=O)N2CCNCC2)n(CCCNS(=O)(=O)c2ccccc2F)c1=O [Example 229, 2-Fluoro-N-(3-(2-oxo-4-phenyl-5-(piperazine-1-carbonyl)-3-o-tolyl-2,3-dihydro-1H-imidazol-1-yl)propyl)benzenesulfonamide]
0.1 to 0.5	COCCOc1cccc(Cn2c(C(=O)N3CCNCC3)c(-c3ccccc3)n(-c3ccccc3C)c2=O)c1 [Example 186, 1-(3-(2-Methoxyethoxy)benzyl)-4-phenyl-5-(piperazine-1-carbonyl)-3-o-tolyl-1H-imidazol-2(3H)-one]
< 0.1	O=C(c1[nH]c(=O)n(-c2ccc3c(c2)NCCC3)c1-c1ccccc1)N1CCNC[C@H]1CCOc1ccccc1 [Example 140, (R)-4-(2-(2-Phenoxyethyl)piperazine-1-carbonyl)-5-phenyl-1-(1,2,3,4-tetrahydroquinolin-7-yl)-1H-imidazol-2(3H)-one]
> 1	Cc1ccccc1-n1c(-c2ccccc2)c(C(=O)N2CCNCC2)n(CCCNC(=O)CC(C)C)c1=O [Example 165, 3-Methyl-N-(3-(2-oxo-4-phenyl-5-(piperazine-1-carbonyl)-3-o-tolyl-2,3-dihydro-1H-imidazol-1-yl)propyl)butanamide]
0.1 to 0.5	Cc1ccccc1-n1c(-c2ccccc2)c(C(=O)N2CCNCC2)n(Cc2cccc(Oc3ccccc3)c2)c1=O [Example 142, 1-(3-Phenoxybenzyl)-4-phenyl-5-(piperazine-1-carbonyl)-3-o-tolyl-1H-imidazol-2(3H)-one]
0.5 to 1	O=C(NCCn1c(C(=O)N2CCNCC2)c(-c2ccccc2)n(-c2cccc(N3CCOCC3)c2)c1=O)c1ccccc1 [Example 177, N-(2-(3-(3-Morpholinophenyl)-2-oxo-4-phenyl-5-(piperazine-1-carbonyl)-2,3-dihydro-1H-imidazol-1-yl)ethyl)benzamide]
> 1	COc1cccc(Cn2c(C(=O)N3CCNCC3)c(-c3ccccc3)n(-c3ccccc3OC)c2=O)c1 [Example 147, 1-(3-Methoxybenzyl)-3-(2-methoxyphenyl)-4-phenyl-5-(piperazine-1-carbonyl)-1H-imidazol-2(3H)-one]
> 1	O=C(c1c(-c2ccccc2)n([C@H]2CCCC[C@H]2O)c(=O)n1Cc1ccc(F)c(F)c1)N1CCNCC1 [Example 154, 1-(3,4-Difluorobenzyl)-3-((1S,2R)-2-hydroxycyclohexyl)-4-phenyl-5-(piperazine-1-carbonyl)-1H-imidazol-2(3H)-one]
< 0.1	O=C(c1[nH]c(=O)n(C2CCCCC2)c1-c1ccccc1)N1CCNC[C@H]1Cc1ccccc1 [Example 111, (R)-4-(2-Benzylpiperazine-1-carbonyl)-1-cyclohexyl-5-phenyl-1H-imidazol-2(3H)-one]
0.1 to 0.5	O=C(c1c(-c2ccccc2)n(-c2cccc(N3CCOCC3)c2)c(=O)n1Cc1ccccc1)N1CCNCC1 [Example 56, 1-Benzyl-3-(3-morpholinophenyl)-4-phenyl-5-(piperazine-1-carbonyl)-1H-imidazol-2(3H)-one]
0.5 to 1	COc1ccc(NC(=O)NCCn2c(C(=O)N3CCNCC3)c(-c3ccccc3)n(-c3ccccc3C)c2=O)cc1 [Example 228, 1-(4-Methoxyphenyl)-3-(2-(2-oxo-4-phenyl-5-(piperazine-1-carbonyl)-3-o-tolyl-2,3-dihydro-1H-imidazol-1-yl)ethyl)urea]
> 1	CC(C)CC(=O)NCCCn1c(C(=O)N2CCNCC2)c(-c2ccccc2)n(-c2cccc(N3CCOCC3)c2)c1=O [Example 176, 3-Methyl-N-(3-(3-(3-morpholinophenyl)-2-oxo-4-phenyl-5-(piperazine-1-carbonyl)-2,3-dihydro-1H-imidazol-1-yl)propyl)butanamide]
> 1	Cc1ccccc1-n1c(-c2ccccc2)c(C(=O)N2CCNCC2)n(CC2CCCCC2)c1=O [Example 163, 1-(Cyclohexylmethyl)-4-phenyl-5-(piperazine-1-carbonyl)-3-o-tolyl-1H-imidazol-2(3H)-one]

IC50 [µM]	SMILES
0.5 to 1	O=C(c1[nH]c(=O)n(-c2ccc3c(c2)NCCC3)c1C1CC1)N1CCNC[C@H]1Cc1ccccc1 [Example 134, (R)-4-(2-Benzylpiperazine-1-carbonyl)-5-cyclopropyl-1-(1,2,3,4-tetrahydroquinolin-7-yl)-1H-imidazol-2(3H)-one]
< 0.1	Cc1ccccc1-n1c(-c2ccccc2)c(C(=O)N2CCNCC2)n(CCCNS(=O)(=O)c2ccccc2C)c1=O [Example 220, 2-Methyl-N-(3-(2-oxo-4-phenyl-5-(piperazine-1-carbonyl)-3-o-tolyl-2,3-dihydro-1H-imidazol-1-yl)propyl)benzenesulfonamide]
> 1	Cn1c(C(=O)N2CCNCC2)c(-c2ccccc2)n(C2CCCCC2)c1=O [Example 60, 1-Cyclohexyl-3-methyl-5-phenyl-4-(piperazine-1-carbonyl)-1H-imidazol-2(3H)-one]
> 1	Cc1ccccc1S(=O)(=O)NCCCn1c(C(=O)N2CCNCC2)c(-c2ccccc2)n(-c2cccc(N3CCOCC3)c2)c1=O [Example 197, 2-Methyl-N-(3-(3-(3-morpholinophenyl)-2-oxo-4-phenyl-5-(piperazine-1-carbonyl)-2,3-dihydro-1H-imidazol-1-yl)propyl)benzenesulfonamide]
> 1	Cc1ccccc1-n1c(-c2ccccc2)c(C(=O)N2CCNCC2)n(CCNS(=O)(=O)c2ccccc2)c1=O [Example 155, N-(2-(2-oxo-4-Phenyl-5-(piperazine-1-carbonyl)-3-o-tolyl-2,3-dihydro-1H-imidazol-1-yl)ethyl)benzenesulfonamide]
0.5 to 1	O=C(c1[nH]c(=O)n(-c2cccc(N3CCOCC3)c2)c1-c1ccccc1)N1CCNCC1 [Example 22, 1-(3-Morpholinophenyl)-5-phenyl-4-(piperazine-1-carbonyl)-1H-imidazol-2(3H)-one]
> 1	O=C(c1c(-c2ccccc2)n(-c2ccccc2)c(=O)n1Cc1c[nH]cn1)N1CCNCC1 [Example 49, 1-((1H-Imidazol-4-yl)methyl)-3,4-diphenyl-5-(piperazine-1-carbonyl)-1H-imidazol-2(3H)-one]
0.1 to 0.5	CCN(CC)c1cc(Cn2c(C(=O)N3CCNCC3)c(-c3ccccc3)n(C3CCCCC3)c2=O)cc(-c2ccc(OC)nc2)n1 [Example 17J, 1-cyclohexyl-3-((6-(diethylamino)-6′-methoxy-2,3′-bipyridin-4-yl)methyl)-5-phenyl-4-(piperazine-1-carbonyl)-1H-imidazol-2(3H)-one]
> 1	Cc1ccccc1-n1c(-c2ccccc2)c(C(=O)N2CCNCC2)n(CCCNS(=O)(=O)C(C)C)c1=O [Example 239, N-(3-(2-oxo-4-phenyl-5-(piperazine-1-carbonyl)-3-o-tolyl-2,3-dihydro-1H-imidazol-1-yl)propyl)propane-2-sulfonamide]
> 1	O=C(c1ccco1)N1CCCC(n2c(-c3ccccc3)c(C(=O)N3CCNCC3)n(Cc3ccccc3)c2=O)C1 (stereo not shown) [Example 97, 1-Benzyl-3-(1-(furan-2-carbonyl)piperidin-3-yl)-4-phenyl-5-(piperazine-1-carbonyl)-1H-imidazol-2(3H)-one]
> 1	Cc1ccccc1-n1c(-c2ccccc2)c(C(=O)N2CCNCC2)n(CCCNC(=O)c2cccc(Cl)c2)c1=O [Example 242, 3-Chloro-N-(3-(2-oxo-4-phenyl-5-(piperazine-1-carbonyl)-3-o-tolyl-2,3-dihydro-1H-imidazol-1-yl)propyl)benzamide]
0.5 to 1	Cc1ccccc1-n1c(-c2ccccc2)c(C(=O)N2CCNCC2)n(CCCNC(=O)Nc2ccccc2)c1=O [Example 223, 1-(3-(2-Oxo-4-phenyl-5-(piperazine-1-carbonyl)-3-o-tolyl-2,3-dihydro-1H-imidazol-1-yl)propyl)-3-phenylurea]
0.1 to 0.5	COCCCOc1cccc(-n2c(-c3ccccc3)c(C(=O)N3CCNCC3)n(CCCNS(=O)(=O)c3ccccc3)c2=O)c1 [Example 180, N-(3-(3-(3-(3-Methoxypropoxy)phenyl)-2-oxo-4-phenyl-5-(piperazine-1-carbonyl)-2,3-dihydro-1H-imidazol-1-yl)propyl)benzenesulfonamide]
< 0.1	COc1ccccc1-n1c(-c2ccccc2)c(C(=O)N2CCNC[C@H]2Cc2ccccc2)[nH]c1=O [Example 113, (R)-4-(2-Benzylpiperazine-1-carbonyl)-1-(2-methoxyphenyl)-5-phenyl-1H-imidazol-2(3H)-one]
> 1	O=C(NCCCn1c(C(=O)N2CCNCC2)c(-c2ccccc2)n(C2CCCC[C@@H]2O)c1=O)c1ccccc1 (stereo partly drawn) [Example 170, N-(3-(3-((2S)-2-Hydroxycyclohexyl)-2-oxo-4-phenyl-5-(piperazine-1-carbonyl)-2,3-dihydro-1H-imidazol-1-yl)propyl)benzamide]
